In ChEMBL document CHEMBL5113420, “Selective inhibition of histone deacetylase 3 by novel hydrazide based small molecules as therapeutic intervention for the treatment of cancer” (Eur J Med Chem, 2022):
Where “and” joins values, the source holds several entries; their conditions need not be identical. Equal values may be shown once. Calls of active or inactive are those of the source. No cut-off for these calls is given here.

Assays:
[1] = Half life in Wistar rat at 15 mg/kg, iv measured upto 24 hrs by HPLC analysis; assay type: ADME, organism-based; details: in vivo
[2] = system: 4T1; assay: Antitumor activity against mouse 4T1 Luc cells implanted in Balb/c mouse assessed as reduction in metastasis at 15 to 25 mg/kg measured after 21 days by Kaplan-Meier method; assay type: functional, organism-based; details: dose 15-25 mg/kg, time 21.0 day
[3] = MRT in Wistar rat at 25 mg/kg, iv measured upto 24 hrs by HPLC analysis; assay type: ADME, organism-based; details: in vivo
[4] = system: 4T1; assay: Induction of apoptosis in mouse 4T1 Luc cells implanted in Balb/c mouse reduction in CD44 expression at 15 to 25 mg/kg incubated for 24 hrs by Western blot analysis; assay type: functional, organism-based; details: dose 15-25 mg/kg
[5] = Toxicity in Balb/c mouse implanted with mouse 4T1 Luc cells assessed as spleen tissue damage at 15 mg/kg by H and E staining; assay type: organism-based; details: in vivo
[6] = Toxicity in Balb/c mouse implanted with mouse 4T1-luc cells assessed as weight loss at 15 mg/kg, ip; assay type: organism-based; details: in vivo
[7] = Tmax in Wistar rat at 25 mg/kg, iv measured upto 24 hrs by HPLC analysis; assay type: ADME, organism-based; details: in vivo
[8] = AUC (0 to infinity) in Wistar rat at 25 mg/kg, iv measured upto 24 hrs by HPLC analysis; assay type: ADME, organism-based; set-up: time < 24 hrs, dose 25 mg/kg, route iv; details: in vivo
[9] = system: 4T1; assay: Cytotoxicity against mouse 4T1 cells assessed as increase in chromosomal condensation at 8.4 uM measured after 48 hrs by acridine orange and DAPI staining based fluorescence microscope assay; assay type: functional, cell-based
[10] = Toxicity in Balb/c mouse implanted with mouse 4T1 Luc cells assessed as kidney tissue damage at 15 mg/kg by H and E staining; assay type: organism-based; details: in vivo
[11] = AUC (0 to infinity) in Wistar rat at 15 mg/kg, ip measured upto 24 hrs by HPLC analysis; assay type: ADME, organism-based; set-up: time < 24 hrs, dose 15 mg/kg, route ip; details: in vivo
[12] = system: 4T1; assay: Induction of apoptosis in mouse 4T1 Luc cells implanted in Balb/c mouse reduction in EGFR expression at 15 to 25 mg/kg incubated for 24 hrs by Western blot analysis; assay type: functional, organism-based; details: dose 15-25 mg/kg
[13] = system: 4T1; assay: Antitumor activity against mouse 4T1 Luc cells implanted in Balb/c mouse assessed as increase in fluorescence at 25 mg/kg using luciferin-D as substrate at 100 mg/kg, ip measured on day 10 and 21 by IVIS Lumina III analysis; assay type: functional, organism-based
[14] = Cmax in Wistar rat at 25 mg/kg, iv measured upto 24 hrs by HPLC analysis; assay type: ADME, organism-based; set-up: dose 25 mg/kg, time < 24 hrs, route iv; details: in vivo
[15] = MRT in Wistar rat at 15 mg/kg, ip measured upto 24 hrs by HPLC analysis; assay type: ADME, organism-based; details: in vivo
[16] = Half life in Wistar rat at 25 mg/kg, iv measured upto 24 hrs by HPLC analysis; assay type: ADME, organism-based; details: in vivo
[17] = system: 4T1; assay: Induction of apoptosis in mouse 4T1 Luc cells implanted in Balb/c mouse assessed as increase in cytochrome c level at 15 to 25 mg/kg incubated for 24 hrs by Western blot analysis; assay type: functional, organism-based; details: dose 15-25 mg/kg
[18] = AUCt in Wistar rat at 25 mg/kg, iv measured upto 24 hrs by HPLC analysis; assay type: ADME, organism-based; set-up: dose 25 mg/kg, time < 24 hrs, route iv; details: in vivo
[19] = Apparent volume of distribution during terminal phase in Wistar rat at 15 mg/kg, ip measured upto 24 hrs by HPLC analysis; assay type: ADME, organism-based; details: in vivo
[20] = system: 4T1; assay: Antitumor activity against mouse 4T1-luc cells Balb/c mouse assessed as reduction in tumor volume at 25 mg/kg, ip measured once 3 days for 21 days (reference value: 49.16 to 1032.50 mm^3); assay type: functional; details: time 3 day
[21] = Toxicity in Balb/c mouse implanted with mouse 4T1 Luc cells assessed as liver tissue damage at 15 mg/kg by H and E staining; assay type: organism-based; details: in vivo
[22] = system: Mus musculus; assay: Antitumor activity against mouse 4T1 Luc cells implanted in Balb/c mouse assessed as increase in animal survival at 15 mg/kg measured after 21 days; assay type: functional, organism-based; details: time 21.0 day
[23] = system: 4T1; assay: Induction of apoptosis in mouse 4T1 Luc cells implanted in Balb/c mouse assessed as upregulation of caspase 3 level at 15 to 25 mg/kg incubated for 24 hrs by Western blot analysis; assay type: functional, organism-based; details: dose 15-25 mg/kg
[24] = Tmax in Wistar rat at 15 mg/kg, ip measured upto 24 hrs by HPLC analysis; assay type: ADME, organism-based; details: in vivo
[25] = Toxicity in Balb/c mouse implanted with mouse 4T1 Luc cells assessed as heart tissue damage at 15 mg/kg by H and E staining; assay type: organism-based; details: in vivo
[26] = AUCt in Wistar rat at 15 mg/kg, iv measured upto 24 hrs by HPLC analysis; assay type: ADME, organism-based; set-up: time < 24 hrs, dose 15 mg/kg, route iv; details: in vivo
[27] = Cmax in Wistar rat at 15 mg/kg, iv measured upto 24 hrs by HPLC analysis; assay type: ADME, organism-based; set-up: time < 24 hrs, dose 15 mg/kg, route iv; details: in vivo
[28] = Toxicity in Balb/c mouse implanted with mouse 4T1-luc cells assessed as mortality at 15 to 25 mg/kg, ip; assay type: organism-based; details: in vivo, dose 15-25 mg/kg
[29] = Cmax in Wistar rat at 15 mg/kg, ip measured upto 24 hrs by HPLC analysis; assay type: ADME, organism-based; set-up: dose 15 mg/kg, time < 24 hrs, route ip; details: in vivo
[30] = Toxicity in Balb/c mouse implanted with mouse 4T1 Luc cells assessed as lung tissue damage at 15 mg/kg by H and E staining; assay type: organism-based; details: in vivo
[31] = AUCt in Wistar rat at 15 mg/kg, ip measured upto 24 hrs by HPLC analysis; assay type: ADME, organism-based; set-up: time < 24 hrs, dose 15 mg/kg, route ip; details: in vivo
[32] = system: 4T1; assay: Induction of apoptosis in mouse 4T1 Luc cells implanted in Balb/c mouse assessed as increase in ROS generation at 15 mg/kg by fluorescent microscopy analysis; assay type: functional, organism-based
[33] = system: 4T1; assay: Induction of apoptosis in mouse 4T1 Luc cells implanted in Balb/c mouse downregulation of Bcl2 expression at 15 to 25 mg/kg incubated for 24 hrs by Western blot analysis; assay type: functional, organism-based; details: dose 15-25 mg/kg
[34] = AUC (0 to infinity) in Wistar rat at 15 mg/kg, iv measured upto 24 hrs by HPLC analysis; assay type: ADME, organism-based; set-up: time < 24 hrs, dose 15 mg/kg, route iv; details: in vivo
[35] = Apparent volume of distribution during terminal phase in Wistar rat at 25 mg/kg, ip measured upto 24 hrs by HPLC analysis; assay type: ADME, organism-based; details: in vivo
[36] = MRT in Wistar rat at 15 mg/kg, iv measured upto 24 hrs by HPLC analysis; assay type: ADME, organism-based; details: in vivo
[37] = Tmax in Wistar rat at 15 mg/kg, iv measured upto 24 hrs by HPLC analysis; assay type: ADME, organism-based; details: in vivo

## CCCNNC(=O)c1ccc(Nc2ccccc2)cc1
[1]
  half-life: 2.19 h
[2]
  Activity: Active
[3]
  MRT: 5.13 h
[4]
  Activity: Active
[5]
  Activity: Non-Toxic
[6]
  Activity: Non-Toxic
[7]
  Tmax: 0.5 h
[8]
  AUC(0-inf): 200000 ng·h/mL and 744 µM·h
[9]
  Activity: Active
[10]
  Activity: Non-Toxic
[11]
  AUC(0-inf): 29300 ng·h/mL and 109 µM·h
[12]
  Activity: Active
[13]
  Activity: Active
[14]
  Cmax: 32100 ng/mL and 120 µM
[15]
  MRT: 4.16 h
[16]
  half-life: 2.62 h
[17]
  Activity: Active
[18]
  AUC(0-t) at 24 h: 200000 ng·h/mL and 742 µM·h
[19]
  Vz/F: 2.16 (mg/kg)/(ug/ml) and 1.44 (mg/kg)/(uM)
[20]
  Activity: 51.83 mm3
[21]
  Activity: Non-Toxic
[22]
  Activity: Active
[23]
  Activity: Active
[24]
  Tmax: 2 h
[25]
  Activity: Non-Toxic
[26]
  AUC(0-t) at 24 h: 159000 ng·h/mL and 592 µM·h
[27]
  Cmax: 26700 ng/mL and 99.3 µM
[28]
  Activity: Non-Toxic
[29]
  Cmax: 8340 ng/mL and 31 µM
[30]
  Activity: Non-Toxic
[31]
  AUC(0-t) at 24 h: 28900 ng·h/mL and 107 µM·h
[32]
  Activity: Active
[33]
  Activity: Active
[34]
  AUC(0-inf): 160000 ng·h/mL and 593 µM·h
[35]
  Vz/F: 3.27 (mg/kg)/(ug/ml) and 2.01 (mg/kg)/(uM)
[36]
  MRT: 5.69 h
[37]
  Tmax: 0.5 h
